In publication PMC4413647, “Simultaneous targeting of androgen receptor (AR) and MAPK-interacting kinases (MNKs) by novel retinamides inhibits growth of human prostate cancer cell lines” (Oncotarget, 2014):

How the values were obtained:
Type in all cases: cell-based, human
PC-3 cells = assay: Boyden chamber matrigel invasion assay; settings: PC-3, 5 μM, 24 h
Protocol: Figure 5 Anti-migratory and anti-invasive potential of NRs (A) Effect of NRs treatment (5 μmol/L) on PC-3 cell migration was assessed by wound healing assay after 24 h of wound formation. Representative photomicrographs of initial and final wounds are shown at 100x magnification. (B) Effect of NRs on PC-3 cell invasion was evaluated by transwell migration assay. PC-3 cells were seeded on matrigel coated boyden chamber and treated with NRs (5 μmol/L, 24 h). Photographs represent the extent of cell invasion in each of the treated cells. (C) Western blot analysis of the effect of NRs on the expression of cadherins in PC-3 cells. Cells were treated with indicated compound 20 μmol/L for 24 h.
The invasion assay in PC-3 cells was performed using Matrigel (BD Biosciences, Bedford, MA, USA)-coated transwell cell culture chambers (8 μm pore size, EMD Millipore, Temecula, CA, USA) as described previously (43). Briefly, PC-3 cells (5 × 10^4 cells/well) were cultured in the upper chamber of the transwell insert for 24 h in serum-free RPMI-1640 medium. The cells were then treated with 5 μM of indicated compounds for 24 h. RPMI-1640 medium containing 10% FBS was placed in the lower chamber. At the end of incubation, the top surface of the non-migrated cells were scraped gently with cotton swabs and the cells on the lower surface of the membrane (migrated cells) were fixed for 15 min with cold methanol and stained with crystal violet. Cells that had migrated to the bottom of the membrane were visualized and counted using an inverted microscope. For each replicate (n = 3), cells in three randomly selected fields were counted and averaged.

MR49F cells = assay: MTT growth inhibition in Enzalutamide resistant MR49F cells; settings: Homo sapiens, MR49F; read-out: GI50 MR49F (Figure 2C)
Protocol: Figure 2 Effect of NRs on PCa cell growth and colony formation (A) Representative photographs of colonies formed in PCa cells at 14th day after initial treatment with specified compounds (5 μmol/L). Colonies were fixed with methanol and stained with crystal violet. (B) Data represents the mean ± S.E from three independent experiments. *, P< 0.05; ♣, P<0.01 compared to vehicle treated control. […] NRs that had promising inhibitory effect on cell proliferation on LNCaP cells were tested for their growth inhibitory effect in MR49F cells in comparison with Casodex and Abiraterone acetate by MTT assay.
Androgen-dependent (LNCaP), androgen-independent (PC-3) and castration resistant (C4-2B and 22Rv1) human prostate carcinoma cells were procured from American Type Culture Collection, Manassas, VA, USA and maintained in RPMI 1640 media (Gibco-Life Technologies, Grand Island, NY, USA) supplemented with 10% fetal bovine serum and 1% penicillin/streptomycin. […] Immortalized untransformed prostate epithelial cells, PWR1E from American Type Culture Collection were maintained in serum-free Keratinocyte media (Gibco) supplemented with epidermal growth factor and bovine pituitary extract. All cell lines were maintained in a 37 °C/5% CO2 humidified atmosphere.
Cell proliferation assay was performed as described previously. For cell growth experiment, cells were treated with the NRs for 7 days. MTT assay was performed at the end of the experiment. Calculations of combination indices were done using the Calcusyn program (Biosoft, Cambridge, United Kingdom). For colony formation assay, cells were plated 1000 per well in complete media and allowed to adhere for 24 h. The next day cells were treated with indicated compounds (5 μM). After 24 h compound containing media were removed, and cells were allowed to form colonies in complete media. Approximately 2 weeks later the colonies were fixed, stained with 0.5% crystal violet (sigma) for 30 min and counted manually. Results represent the mean ± standard deviation of three independent experiments.

LNCaP cells = assay: Cell cycle FACS analysis (PI staining); settings: 5 μM, 24 h, untreated control 37.1%
Protocol: Figure 4 Effect of NRs on cell cycle and apoptosis (A) LNCaP cells treated with 5 μM of NRs and other compounds for 24 h were stained with PI and analysed with a FACS calibur flow cytometer. (B) Total cell lysates from PCa cells treated with 20 μM of NRs were separated by SDS-PAGE and probed with cyclin D1 and B antibodies. […] (C) LNCaP cells were treated with indicated compounds (5 μmol/L) for 24 h and apoptosis induction was examined by oligonucleosomal fragmentation. Data are shown relative to vehicle treated control and the bars are means of three replicate determinations plus standard deviations. *, P< 0.01; ♣, P<0.05 compared with vehicle treated control. […] After 24 h the plates were analyzed for apoptotic and viable cells using acridine orange/ethidium bromide staining. […] (F) Apoptosis induction in LNCaP cells treated with 5 μmol/L of VNLG-147 and -152 in the presence or absence of ZVAD (5 μmol/L) was assessed by oligonucleosomal fragmentation after 24 h incubation. *, P< 0.05 compared with vehicle treated control. […]
Cells were harvested by trypsinization and then ﬁxed with 70% ethanol for 24 h at 4 °C. […] Stained cells were analyzed with a ﬂow cytometer using FlowJo software that exploits Watson algorithm to find out peak and S-phase populations from a univariate distribution curve.

SMILES: CC1=C(/C=C/C(C)=C/C=C/C(C)=C/C(=O)Nc2ccc(F)cc2)C(C)(C)CCC1n1ccnc1 (racemic) [VNLG-152]
- percentage of cell invasion compared to control (PC-3 cells): 13
- GI50 (MR49F cells): 3.89 µM
- percentage of cells in G1 phase (LNCaP cells): 74.6%
